Source: patent publication US20080114007A1 (priority 2006, published 2008)

target: CSF-1R (Homo sapiens, UniProt P07333); assay: Peptide (non-phosphorylated) assay, fluorescence polarization competition immunoassay; type: biochemical; details: 0.7 nM CSF-1R, 308 μM SYEGNSYTFIDPTQ peptide, 1 mM ATP, 80 min; mean of at least three determinations; read-out: c-fms Peptide IC50
Outline: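 Read-out is fluorescence polarization: after EDTA quench, anti-phosphotyrosine antibody plus PTK green tracer compete with the phosphorylated peptide for 30 min. The CSF-1R reaction itself ran 80 min at room temperature after ATP addition. DMSO (4%) wells served as controls, positive controls pre-treated with EDTA.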

Chain of CSF-1R (P07333 20-972): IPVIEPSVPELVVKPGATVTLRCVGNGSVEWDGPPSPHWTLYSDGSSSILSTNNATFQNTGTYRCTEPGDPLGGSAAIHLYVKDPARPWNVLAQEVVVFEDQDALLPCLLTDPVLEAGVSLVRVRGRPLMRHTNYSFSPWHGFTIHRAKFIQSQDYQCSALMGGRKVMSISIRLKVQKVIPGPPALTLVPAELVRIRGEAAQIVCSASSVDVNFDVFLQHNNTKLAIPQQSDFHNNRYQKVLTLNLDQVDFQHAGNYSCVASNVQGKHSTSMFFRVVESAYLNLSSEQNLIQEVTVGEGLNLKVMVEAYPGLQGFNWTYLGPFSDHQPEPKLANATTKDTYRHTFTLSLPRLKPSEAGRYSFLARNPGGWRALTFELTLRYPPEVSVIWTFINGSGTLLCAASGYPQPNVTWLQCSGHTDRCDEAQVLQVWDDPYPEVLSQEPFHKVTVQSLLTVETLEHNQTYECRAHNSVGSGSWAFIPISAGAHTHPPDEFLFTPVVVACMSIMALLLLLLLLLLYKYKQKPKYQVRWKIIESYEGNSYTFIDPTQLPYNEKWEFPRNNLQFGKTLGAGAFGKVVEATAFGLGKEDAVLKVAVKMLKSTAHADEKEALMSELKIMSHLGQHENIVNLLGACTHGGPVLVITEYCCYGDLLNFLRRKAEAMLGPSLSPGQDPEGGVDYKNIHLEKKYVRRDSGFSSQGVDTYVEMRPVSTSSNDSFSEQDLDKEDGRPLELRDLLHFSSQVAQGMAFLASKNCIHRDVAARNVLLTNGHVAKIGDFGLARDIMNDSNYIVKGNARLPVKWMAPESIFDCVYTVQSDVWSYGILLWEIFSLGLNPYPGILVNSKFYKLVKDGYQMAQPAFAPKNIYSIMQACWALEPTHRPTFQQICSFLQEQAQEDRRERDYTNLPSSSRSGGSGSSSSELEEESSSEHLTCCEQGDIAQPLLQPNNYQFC

IC50 [nM] | SMILES
1.5 | NC(=O)c1cn(-c2ccc3c(c2)CCC3)c2nc(Nc3ccc(CCN4CCCC4)cc3)ncc2c1=O [Cpd 5, 8-indan-5-yl-5-oxo-2-[4-(2-pyrrolidin-1-yl-ethyl)-phenylamino]-5,8-dihydro-pyrido[2,3-d]pyrimidine-6-carboxylic acid amide]
0.83 | CONC(=O)c1cn(-c2ccc3c(c2)CCC3)c2nc(Nc3ccc(C4CCN(S(C)(=O)=O)CC4)cc3)ncc2c1=O [Cpd 76, 8-indan-5-yl-2-[4-(1-methanesulfonyl-piperidin-4-yl)-phenylamino]-5-oxo-5,8-dihydro-pyrido[2,3-d]pyrimidine-6-carboxylic acid methoxy-amide]
1.6 | CONC(=O)c1cn(-c2ccc3c(c2)CCC3)c2nc(Nc3ccc(CCN4CC(F)(F)C4)cc3)ncc2c1=O [Cpd 270, 2-{4-[2-(3,3-difluoro-azetidin-1-yl)-ethyl]-phenylamino}-8-indan-5-yl-5-oxo-5,8-dihydro-pyrido[2,3-d]pyrimidine-6-carboxylic acid methoxy-amide]
1 | CCONC(=O)c1cn(C2CCCCC2)c2nc(Nc3ccc(CCN4CCOCC4)cc3)ncc2c1=O [Cpd 21, 8-cyclohexyl-2-[4-(2-morpholin-4-yl-ethyl)-phenylamino]-5-oxo-5,8-dihydro-pyrido[2,3-d]pyrimidine-6-carboxylic acid ethoxy-amide]
4.9 | CCc1ccc(-n2cc(C(=O)NOC3CCCC3)c(=O)c3cnc(Nc4ccc(CCN5CCN(C)CC5)cc4)nc32)cc1 [Cpd 92, 8-(4-ethyl-phenyl)-2-{4-[2-(4-methyl-piperazin-1-yl)-ethyl]-phenylamino}-5-oxo-5,8-dihydro-pyrido[2,3-d]pyrimidine-6-carboxylic acid cyclopentyloxy-amide]
0.7 | CCc1ccc(-n2cc(C(=O)NOC(C)C)c(=O)c3cnc(Nc4ccc(C5CCN(CCCO)CC5)cc4)nc32)cc1 [Cpd 187, 8-(4-ethyl-phenyl)-2-{4-[1-(3-hydroxy-propyl)-piperidin-4-yl]-phenylamino}-5-oxo-5,8-dihydro-pyrido[2,3-d]pyrimidine-6-carboxylic acid isopropoxy-amide]
7.7 | CONC(=O)c1cn(-c2cnc3c(c2)CCC3)c2nc(Nc3ccc(CCS(C)(=O)=O)cc3)ncc2c1=O [Cpd 226, 8-(6,7-dihydro-5H-[1]pyrindin-3-yl)-2-[4-(2-methanesulfonyl-ethyl)-phenylamino]-5-oxo-5,8-dihydro-pyrido[2,3-d]pyrimidine-6-carboxylic acid methoxy-amide]
4.5 | CC(C)NC(=O)c1cn(-c2ccc3c(c2)CCC3)c2nc(Nc3cccc(N4CCNCC4)c3)ncc2c1=O [Cpd 1, 8-indan-5-yl-5-oxo-2-(3-piperazin-1-yl-phenylamino)-5,8-dihydro-pyrido[2,3-d]pyrimidine-6-carboxylic acid isopropylamide]
0.65 | CONC(=O)c1cn(-c2ccc3c(c2)CCC3)c2nc(Nc3cccc(CCN4CCCC4)c3)ncc2c1=O [Cpd 194, 8-indan-5-yl-5-oxo-2-[3-(2-pyrrolidin-1-yl-ethyl)-phenylamino]-5,8-dihydro-pyrido[2,3-d]pyrimidine-6-carboxylic acid methoxy-amide]
0.77 | CONC(=O)c1cn(-c2ccc3c(c2)CCC3)c2nc(Nc3ccc(Cc4ccncc4)cc3)ncc2c1=O [Cpd 173, 8-indan-5-yl-5-oxo-2-(4-pyridin-4-ylmethyl-phenylamino)-5,8-dihydro-pyrido[2,3-d]pyrimidine-6-carboxylic acid methoxy-amide]
0.4 | CCc1ccc(-n2cc(C(=O)NOC)c(=O)c3cnc(Nc4ccc5c(c4)CCN5S(C)(=O)=O)nc32)cc1 [Cpd 280, 8-(4-ethyl-phenyl)-2-(1-methanesulfonyl-2,3-dihydro-1H-indol-5-ylamino)-5-oxo-5,8-dihydro-pyrido[2,3-d]pyrimidine-6-carboxylic acid methoxy-amide]
0.8 | CCc1ccc(-n2cc(C(=O)NOC)c(=O)c3cnc(Nc4cccc(OC5CCN(CC)CC5)c4)nc32)cc1 [Cpd 322, 8-(4-ethyl-phenyl)-2-[3-(1-ethyl-piperidin-4-yloxy)-phenylamino]-5-oxo-5,8-dihydro-pyrido[2,3-d]pyrimidine-6-carboxylic acid methoxy-amide]
1.2 | CC(C)ONC(=O)c1cn(-c2ccc3c(c2)CCC3)c2nc(Nc3ccc(CCN4CCCC4)cc3)ncc2c1=O [Cpd 133, 8-indan-5-yl-5-oxo-2-[4-(2-pyrrolidin-1-yl-ethyl)-phenylamino]-5,8-dihydro-pyrido[2,3-d]pyrimidine-6-carboxylic acid isopropoxy-amide]
0.3 | CCc1ccc(-n2cc(C(=O)NOC)c(=O)c3cnc(Nc4ccc(OC5CCN(C)CC5)cc4)nc32)cc1 [Cpd 309, 8-(4-ethyl-phenyl)-2-[4-(1-methyl-piperidin-4-yloxy)-phenylamino]-5-oxo-5,8-dihydro-pyrido[2,3-d]pyrimidine-6-carboxylic acid methoxy-amide]
0.88 | CONC(=O)c1cn(-c2ccc3c(c2)CCC3)c2nc(Nc3ccc(CCNC4CC5CCC4C5)cc3)ncc2c1=O (stereo not shown) [Cpd 108, 2-{4-[2-(bicyclo[2.2.1]hept-2-ylamino)-ethyl]-phenylamino}-8-indan-5-yl-5-oxo-5,8-dihydro-pyrido[2,3-d]pyrimidine-6-carboxylic acid methoxy-amide]
1.3 | CONC(=O)c1cn(-c2ccc3c(c2)CCC3)c2nc(Nc3cccc(CCN4CCN(C)CC4)c3)ncc2c1=O [Cpd 200, 8-indan-5-yl-2-{3-[2-(4-methyl-piperazin-1-yl)-ethyl]-phenylamino}-5-oxo-5,8-dihydro-pyrido[2,3-d]pyrimidine-6-carboxylic acid methoxy-amide]
0.63 | CONC(=O)c1cn(-c2ccc3c(c2)CCC3)c2nc(Nc3ccc(CCNCCO)cc3)ncc2c1=O [Cpd 97, 2-{4-[2-(2-hydroxy-ethylamino)-ethyl]-phenylamino}-8-indan-5-yl-5-oxo-5,8-dihydro-pyrido[2,3-d]pyrimidine-6-carboxylic acid methoxy-amide]
0.3 | CONC(=O)c1cn(-c2ccc3c(c2)CCC3)c2nc(Nc3ccc(OC4CCN(C)CC4)cc3)ncc2c1=O [Cpd 313, 8-indan-5-yl-2-[4-(1-methyl-piperidin-4-yloxy)-phenylamino]-5-oxo-5,8-dihydro-pyrido[2,3-d]pyrimidine-6-carboxylic acid methoxy-amide]
0.9 | CONC(=O)c1cn(-c2ccc3c(c2)CCC3)c2nc(Nc3ccc(CCNCCS(C)(=O)=O)cc3)ncc2c1=O [Cpd 99, 8-indan-5-yl-2-{4-[2-(2-methanesulfonyl-ethylamino)-ethyl]-phenylamino}-5-oxo-5,8-dihydro-pyrido[2,3-d]pyrimidine-6-carboxylic acid methoxy-amide]
0.68 | CONC(=O)c1cn(-c2ccc3c(c2)CCC3)c2nc(Nc3ccc(CCN4CCN(C)CC4)cc3)ncc2c1=O [Cpd 61, 8-indan-5-yl-2-{4-[2-(4-methyl-piperazin-1-yl)-ethyl]-phenylamino}-5-oxo-5,8-dihydro-pyrido[2,3-d]pyrimidine-6-carboxylic acid methoxy-amide]
2 | CONC(=O)c1cn(C2CCCC2)c2nc(Nc3ccc(CCN4CCCC4=O)cc3)ncc2c1=O [Cpd 38, 8-cyclopentyl-5-oxo-2-{4-[2-(2-oxo-pyrrolidin-1-yl)-ethyl]-phenylamino}-5,8-dihydro-pyrido[2,3-d]pyrimidine-6-carboxylic acid methoxy-amide]
1.5 | CONC(=O)c1cn(-c2ccc3c(c2)CCC3)c2nc(Nc3ccc(CCNC4C5CC6CC(C5)CC4C6)cc3)ncc2c1=O (stereo not shown) [Cpd 107, 2-{4-[2-(adamantan-2-ylamino)-ethyl]-phenylamino}-8-indan-5-yl-5-oxo-5,8-dihydro-pyrido[2,3-d]pyrimidine-6-carboxylic acid methoxy-amide]
0.9 | CONC(=O)c1cn(-c2ccc3c(c2)CCC3)c2nc(Nc3ccc4[nH]ccc4c3)ncc2c1=O [Cpd 287, 8-indan-5-yl-2-(1H-indol-5-ylamino)-5-oxo-5,8-dihydro-pyrido[2,3-d]pyrimidine-6-carboxylic acid methoxy-amide]
1 | CONC(=O)c1cn(-c2ccc(OC(F)(F)F)cc2)c2nc(Nc3ccc(CCN4CCN(C)CC4)cc3)ncc2c1=O [Cpd 175, 2-{4-[2-(4-methylpiperazin-1-yl)-ethyl]-phenylamino}-5-oxo-8-(4-trifluoromethoxy-phenyl)-5,8-dihydropyrido[2,3-d]pyrimidine-6-carboxylic acid methoxy-amide]
2.3 | CONC(=O)c1cn(-c2ccc3c(c2)CCC3)c2nc(Nc3cccc(S(=O)(=O)N(C)C)c3)ncc2c1=O [Cpd 129, 2-(3-dimethylsulfamoyl-phenylamino)-8-indan-5-yl-5-oxo-5,8-dihydro-pyrido[2,3-d]pyrimidine-6-carboxylic acid methoxy-amide]
319 | CONC(=O)c1cn(-c2ccc3c(c2)CCC3)c2nc(Nc3ccc4[nH]cnc4c3)ncc2c1=O [Cpd 302, 2-(1H-benzoimidazol-5-ylamino)-8-indan-5-yl-5-oxo-5,8-dihydro-pyrido[2,3-d]pyrimidine-6-carboxylic acid methoxy-amide]
1.3 | CONC(=O)c1cn(C2CCCCC2)c2nc(Nc3ccc(CN4CCCC4=O)cc3)ncc2c1=O [Cpd 12, 8-cyclohexyl-5-oxo-2-[4-(2-oxo-pyrrolidin-1-ylmethyl)-phenylamino]-5,8-dihydro-pyrido[2,3-d]pyrimidine-6-carboxylic acid methoxy-amide]
1.8 | CCc1ccc(-n2cc(C(=O)NOC)c(=O)c3cnc(Nc4ccc(C5CCN(CCO)CC5)cc4)nc32)cc1 [Cpd 95, 8-(4-ethyl-phenyl)-2-{4-[1-(2-hydroxy-ethyl)-piperidin-4-yl]-phenylamino}-5-oxo-5,8-dihydro-pyrido[2,3-d]pyrimidine-6-carboxylic acid methoxy-amide]
